Paper PMC5620609 (Pharmaceuticals, 2017)

Key:
[1] = system: DU-145; assay: NCI 60 cell line panel: DU-145; type: cell-based, human; settings: Prostate cancer, TP53 null/mutant
Source text: (§1) Details of the NCI 60 One Dose Screen are well known and available online.

[2] = system: HT29; assay: NCI 60 cell line panel: HT29; type: cell-based, human; settings: Colon cancer, TP53 null/mutant
Source text: as §1

[3] = system: MCF7; assay: NCI 60 cell line panel: MCF7; type: cell-based, human; settings: Breast cancer, TP53 wild type
Source text: as §1

[4] = system: EKVX; assay: NCI 60 cell line panel: EKVX; type: cell-based, human; settings: NSCL, TP53 null/mutant
Source text: as §1

[5] = system: PC-3; assay: NCI 60 cell line panel: PC-3; type: cell-based, human; settings: Prostate cancer, TP53 null/mutant
Source text: as §1

[6] = system: OVCAR-4; assay: NCI 60 cell line panel: OVCAR-4; type: cell-based, human; settings: Ovarian cancer, TP53 null/mutant
Source text: as §1

[7] = system: NCI-H322M; assay: NCI 60 cell line panel: NCI-H322M; type: cell-based, human; settings: NSCL, TP53 null/mutant
Source text: as §1

[8] = system: MDA-MB-231; assay: NCI 60 cell line panel: MDA-MB-231; type: cell-based, human; settings: Breast cancer, TP53 null/mutant
Source text: as §1

[9] = system: NCI-H460; assay: NCI 60 cell line panel: NCI-H460; type: cell-based, human; settings: NSCL, TP53 wild type
Source text: as §1

[10] = system: SNB-75; assay: NCI 60 cell line panel: SNB-75; type: cell-based, human; settings: CNS cancer, TP53 null/mutant
Source text: as §1

[11] = system: NCI 60 cell line panel; assay: NCI 60 cell line panel, allocation of cell lines by growth inhibition at 10 µM; type: cell-based, human
Source text: as §1

[12] = system: MALME-3M; assay: NCI 60 cell line panel: MALME-3M; type: cell-based, human; settings: Melanoma, TP53 wild type
Source text: as §1

[13] = system: IGROV-1; assay: NCI 60 cell line panel: IGROV-1; type: cell-based, human; settings: Ovarian cancer, TP53 null/mutant
Source text: as §1

[14] = system: NCI-H226; assay: NCI 60 cell line panel: NCI-H226; type: cell-based, human; settings: NSCL, TP53 null/mutant
Source text: as §1

[15] = system: CCRF-CEM; assay: NCI 60 cell line panel: CCRF-CEM; type: cell-based, human; settings: Leukemia, TP53 null/mutant
Source text: as §1

[16] = biological target: T1, DNMT1 (Homo sapiens, UniProt P26358); assay: Western blot for DNMT1, Kasumi-1 cells; type: cell-based; design: cytoplasmic and nuclear protein extracts from cells; endogenous in cells; host or cells: Kasumi-1; settings: 0.1 and 0.2 µM, 6 days after exposure
T1 sequence (P26358 whole entry): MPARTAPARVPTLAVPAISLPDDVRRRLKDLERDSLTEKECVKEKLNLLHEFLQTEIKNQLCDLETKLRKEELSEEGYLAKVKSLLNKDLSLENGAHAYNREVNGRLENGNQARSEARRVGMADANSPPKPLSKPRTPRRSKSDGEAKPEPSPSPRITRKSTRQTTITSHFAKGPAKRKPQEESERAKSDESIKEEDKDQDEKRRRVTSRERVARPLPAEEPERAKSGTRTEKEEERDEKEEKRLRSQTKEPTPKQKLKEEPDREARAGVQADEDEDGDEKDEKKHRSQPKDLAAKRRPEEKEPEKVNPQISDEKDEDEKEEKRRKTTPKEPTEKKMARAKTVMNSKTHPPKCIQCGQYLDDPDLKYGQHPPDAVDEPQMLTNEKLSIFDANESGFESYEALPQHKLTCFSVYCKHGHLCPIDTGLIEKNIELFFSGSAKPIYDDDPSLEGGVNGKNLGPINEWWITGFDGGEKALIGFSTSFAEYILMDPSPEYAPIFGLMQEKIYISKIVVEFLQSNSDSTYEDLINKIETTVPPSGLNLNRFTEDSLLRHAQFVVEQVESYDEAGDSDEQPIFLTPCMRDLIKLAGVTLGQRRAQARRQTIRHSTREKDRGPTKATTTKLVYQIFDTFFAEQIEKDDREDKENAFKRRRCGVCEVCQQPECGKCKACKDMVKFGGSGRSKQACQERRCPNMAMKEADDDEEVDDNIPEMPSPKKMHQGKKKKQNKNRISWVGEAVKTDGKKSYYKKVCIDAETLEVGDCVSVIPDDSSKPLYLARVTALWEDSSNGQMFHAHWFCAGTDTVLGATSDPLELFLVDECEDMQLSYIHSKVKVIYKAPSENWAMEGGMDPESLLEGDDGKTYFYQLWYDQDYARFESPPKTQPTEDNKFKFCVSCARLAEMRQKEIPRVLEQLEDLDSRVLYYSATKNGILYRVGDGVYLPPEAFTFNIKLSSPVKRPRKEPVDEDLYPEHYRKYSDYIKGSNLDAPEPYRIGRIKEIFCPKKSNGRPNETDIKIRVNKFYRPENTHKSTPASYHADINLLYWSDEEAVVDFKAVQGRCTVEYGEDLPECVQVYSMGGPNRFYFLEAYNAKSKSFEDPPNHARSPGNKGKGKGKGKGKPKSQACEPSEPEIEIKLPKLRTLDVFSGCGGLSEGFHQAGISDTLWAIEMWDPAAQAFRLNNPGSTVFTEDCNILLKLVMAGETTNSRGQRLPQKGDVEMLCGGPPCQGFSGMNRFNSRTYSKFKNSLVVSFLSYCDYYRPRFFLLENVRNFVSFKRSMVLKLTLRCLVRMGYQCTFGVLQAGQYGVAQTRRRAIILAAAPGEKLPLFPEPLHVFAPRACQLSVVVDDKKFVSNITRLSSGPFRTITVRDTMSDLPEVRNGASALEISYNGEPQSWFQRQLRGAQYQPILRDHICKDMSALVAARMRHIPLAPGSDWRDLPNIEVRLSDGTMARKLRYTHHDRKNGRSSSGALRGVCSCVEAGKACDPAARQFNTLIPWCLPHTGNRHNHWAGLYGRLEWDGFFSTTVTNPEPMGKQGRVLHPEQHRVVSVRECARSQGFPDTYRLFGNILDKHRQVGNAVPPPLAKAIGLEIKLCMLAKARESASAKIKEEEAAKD
Procedure: (§2) Cells were co-stained with Annexin-V and PI on day 2 and analyzed by flow cytometry.
(§3) Approximately 100 µg of cytoplasmic and nuclear protein extracts from cells, together with molecular weight markers, were subjected to SDS-PAGE on 4–12% gradient gels (Invitrogen, Carlsbad, CA, USA) followed by transfer to polyvinylidene fluoride membranes (Invitrogen). Blots were probed using antibodies for DNMT1 (Abcam ab16632).

[17] = system: SF-268; assay: NCI 60 cell line panel: SF-268; type: cell-based, human; settings: CNS cancer, TP53 null/mutant
Source text: as §1

[18] = system: NCI-H522; assay: NCI 60 cell line panel: NCI-H522; type: cell-based, human; settings: NSCL, TP53 null/mutant
Source text: as §1

[19] = biological target: T1, DNMT1; assay: Western blot for DNMT1, THP-1 cells; type: cell-based; design: cytoplasmic and nuclear protein extracts from cells; endogenous in cells; host or cells: THP-1; settings: 0.1 and 0.2 µM, 6 days after exposure
Procedure: as §2, §3

[20] = system: NCI/ADR-RES; assay: NCI 60 cell line panel: NCI/ADR-RES; type: cell-based, human; settings: Ovarian cancer, TP53 null/mutant
Source text: as §1

[21] = system: total DNMT; assay: Total DNMT inhibition, colorimetric assay in HCT-116 cells; type: cell-based, human; settings: 10 µM, 24 h
Procedure: Total DNMT activity was measured in the colon cancer cell line HCT-116. The assay was performed using the EpiQuick^TM DNA Methyltransferase Activity/Inhibition Assay Kit (Epigentek, Brooklyn, NY, USA). […] Assays were performed three times in triplicate.

[22] = system: LOX IMVI; assay: NCI 60 cell line panel: LOX IMVI; type: cell-based, human; settings: Melanoma, TP53 wild type
Source text: as §1

[23] = system: TP53 WT colon cancer cell line LoVo; assay: In vitro growth inhibition (CellTiter-Glo), LoVo; type: cell-based; settings: Homo sapiens, 72 h exposure
Procedure: Further testing was performed in colon cancer cell lines.
(§4) Cells were grown in an appropriate medium for the cell line of interest; 96 well plates of each cell line were seeded with 5000 cells per well and left overnight. Drug exposed cells were incubated at 37 °C for 72 h. At the end of the 72 h exposure period, plates were removed for the CellTiter-Glo® assay. Luminescence was recorded on a Synergy 4.0. Assays were performed in triplicate.

[24] = system: UACC-62; assay: NCI 60 cell line panel: UACC-62; type: cell-based, human; settings: Melanoma, TP53 wild type
Source text: as §1

[25] = system: HCT-15; assay: NCI 60 cell line panel: HCT-15; type: cell-based, human; settings: Colon cancer, TP53 null/mutant
Source text: as §1

[26] = system: RPMI-8226; assay: NCI 60 cell line panel: RPMI-8226; type: cell-based, human; settings: Leukemia, TP53 null/mutant
Source text: as §1

[27] = system: SNB-19; assay: NCI 60 cell line panel: SNB-19; type: cell-based, human; settings: CNS cancer, TP53 null/mutant
Source text: as §1

[28] = system: MOLT-4; assay: NCI 60 cell line panel: MOLT-4; type: cell-based, human; settings: Leukemia, TP53 null/mutant
Source text: as §1

[29] = system: BT-549; assay: NCI 60 cell line panel: BT-549; type: cell-based, human; settings: Breast cancer, TP53 null/mutant
Source text: as §1

[30] = system: THP-1 cells; assay: Morphology (Giemsa stain) of THP-1 cells; type: cell-based, human; settings: 6 days following exposure
[31] = system: human colon cancer cell line HCT-116; assay: In vitro growth inhibition (CellTiter-Glo), HCT-116; type: cell-based; settings: HCT 116 TP53(-/-), read-out: GI50 (concentration of drug that inhibited 50% of cell growth), 72 h exposure
Procedure: as §4

[32] = system: SN12C; assay: NCI 60 cell line panel: SN12C; type: cell-based, human; settings: Renal cancer, TP53 null/mutant
Source text: as §1

[33] = system: HCC-2998; assay: NCI 60 cell line panel: HCC-2998; type: cell-based, human; settings: Colon cancer, TP53 null/mutant
Source text: as §1

[34] = Hydrolysis of the 5-azacytosine base; type: physicochemical; settings: data not shown
[35] = system: UO-31; assay: NCI 60 cell line panel: UO-31; type: cell-based, human; settings: Renal cancer, TP53 wild type
Source text: as §1

[36] = system: HCT-116; assay: NCI 60 cell line panel: HCT-116; type: cell-based, human; settings: Colon cancer, TP53 wild type
Source text: as §1

[37] = system: OVCAR-3; assay: NCI 60 cell line panel: OVCAR-3; type: cell-based, human; settings: Ovarian cancer, TP53 null/mutant
Source text: as §1

[38] = system: K-562; assay: NCI 60 cell line panel: K-562; type: cell-based, human; settings: Leukemia, TP53 null/mutant
Source text: as §1

[39] = 55 cell lines tested for both compounds

With `Nc1ncn([C@@H]2O[C@H](CO)[C@@H](O)C2(F)F)c(=O)n1` [NUC013, 5-aza-2′,2′-difluroro deoxycytidine] the “Growth (%) at 10 µM” value [1] was 43.48%, the “Growth (%) at 10 µM” value [2] was 70.09% and the “Growth (%) at 10 µM” value [3] was 20.74%. The “Growth (%) at 10 µM” value [4] was 86.06%, the “Growth (%) at 10 µM” value [5] was 63.57% and the “Growth (%) at 10 µM” value [6] was 94.88%. For the same compound, the “Growth (%) at 10 µM” value [7] was 70.00%, the “Growth (%) at 10 µM” value [8] was 79.98% and the “Growth (%) at 10 µM” value [9] was 9.34%. The “Growth (%) at 10 µM” value [10] was 64.95%, the “Number of cell lines with growth inhibition at 10 µM >50%” value [11, 39] was 24 and the “Number of cell lines with growth inhibition at 10 µM ≤50%” value [11, 39] was 31. The “Number of cell lines with growth inhibition at 10 µM >50%” value ([11]; TP53 (Null/Mutant) cell lines) was 13, the “Number of cell lines with growth inhibition at 10 µM ≤50%” value ([11]; TP53 (Null/Mutant) cell lines) was 27 and the “Number of cell lines with growth inhibition at 10 µM >50%” value ([11]; TP53 (WT) cell lines) was 11. For the same compound, the “Number of cell lines with growth inhibition at 10 µM ≤50%” value ([11]; TP53 (WT) cell lines) was 4, the “Growth (%) at 10 µM” value [12] was 67.90% and the “Growth (%) at 10 µM” value [13] was 56.77%. The “Growth (%) at 10 µM” value [14] was 52.34%, the “Growth (%) at 10 µM” value [15] was 23.67% and the “DNMT1 inhibition by western blot” value [16] was “weaker than decitabine”. The “Growth (%) at 10 µM” value [17] was 65.39%, the “Growth (%) at 10 µM” value [18] was 86.91% and the “DNMT1 inhibition by western blot” value [19] was “comparable to decitabine”. For the same compound, the “Growth (%) at 10 µM” value [20] was 42.13%, the “inhibition of total DNMT” value [21] was 48.5% and the “Growth (%) at 10 µM” value [22] was 34.53%. For the same compound, the GI50 [23] was 3 µM, the “Growth (%) at 10 µM” value [24] was 47.29% and the “Growth (%) at 10 µM” value [25] was 52.19%. For the same compound, the “Growth (%) at 10 µM” value [26] was 39.24%, the “Growth (%) at 10 µM” value [27] was 58.88% and the “Growth (%) at 10 µM” value [28] was 35.63%. The “Growth (%) at 10 µM” value [29] was 53.63%, the morphologic changes [30] was “morphologic changes suggestive of cell differentiation” and the GI50 [31] was 4.54 µM. For the same compound, the “Growth (%) at 10 µM” value [32] was 51.65%, the “Growth (%) at 10 µM” value [33] was 60.44% and the “hydrolysis at the 6-position of the cytosine ring” value [34] was “susceptible to hydrolysis”. For the same compound, the “Growth (%) at 10 µM” value [35] was 39.00%, the “Growth (%) at 10 µM” value [36] was 29.84% and the “Growth (%) at 10 µM” value [37] was 70.56%. For the same compound, the “Growth (%) at 10 µM” value [38] was 65.66%.
